± gives the standard deviation of the averaged measurements.
How the values were obtained:
[1] = test system: Homo sapiens (human subject panel, olfactory perception); test: perceived odor familiarity rating (rating 0-100); higher = more familiar
Outline: (§1)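 Stimuli were molecules diluted in paraffin oil at high and low concentrations, with 1 mL of each sniffed in randomized order across ten visits of 100 stimuli. Participants were 55 healthy humans aged 18–50, excluding the six lowest performers. Subjects who smelled a stimulus moved a computerized slider away from its starting point of 50, and positions were rescaled to 0–100. Familiarity, intensity and pleasantness are each reported as an average over subjects.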

[2] = test system: Homo sapiens (human subject panel, olfactory perception); test: perceived odor intensity rating (rating 0-100); higher = stronger perceived smell
Outline: as §1

[3] = test system: Homo sapiens (human subject panel, olfactory perception); test: perceived odor pleasantness rating (rating 0-100); higher = more pleasant
Outline: as §1

[4] = odor dilution in paraffin oil: 1/10
[5] = odor dilution in paraffin oil: 1/1,000
[6] = odor dilution in paraffin oil: 1/100,000
[7] = odor dilution in paraffin oil: 1/10,000,000

Structure (SMILES)	perceived odor familiarity rating [1, 4]	perceived odor familiarity rating [1, 5]	perceived odor intensity rating [2, 4]	perceived odor intensity rating [2, 5]	perceived odor pleasantness rating [3, 4]	perceived odor pleasantness rating [3, 5]	perceived odor familiarity rating [1, 6]	perceived odor intensity rating [2, 6]	perceived odor pleasantness rating [3, 6]	perceived odor familiarity rating [1, 7]	perceived odor intensity rating [2, 7]	perceived odor pleasantness rating [3, 7]
CCCCCCCCCC(=O)O [decanoic acid]	47.4 ± 34	40.6 ± 29	75.9 ± 22	50.2 ± 30	28.3 ± 26	28.7 ± 19						
CCCCCCCCCCO [decanol]		49.6 ± 33		66 ± 27		38.6 ± 28	39.4 ± 32	29.1 ± 24	46.8 ± 25			
CCCCCC1CCCC(=O)O1 (configuration not stated) [delta-Decalactone]		62.5 ± 28		65.7 ± 28		69.3 ± 22	60.8 ± 29	52 ± 28	72.4 ± 20			
CC1CCCC(=O)O1 (configuration not stated) [delta-Hexalactone]		38.8 ± 31		48.4 ± 32		45 ± 25	32.7 ± 28	18.4 ± 21	50.5 ± 21			
CCCCCCCCCC1CCCC(=O)O1 (configuration not stated) [delta-Tetradecalactone (replicate)]		37.7 ± 24		33 ± 30		41.9 ± 20	26 ± 28	13.9 ± 20	51.2 ± 20			
CCCCCCCCCC1CCCC(=O)O1 (configuration not stated) [delta-Tetradecalactone]		47.2 ± 27		33.7 ± 26		45.5 ± 24	33 ± 25	20.7 ± 24	48.1 ± 22			
CCCCCCC1CCCC(=O)O1 (configuration not stated) [delta-Undecalactone]		51.5 ± 33		64.9 ± 28		60.7 ± 31	41.4 ± 30	34.4 ± 30	60.7 ± 25			
CCOC(=O)CCC(=O)OCC [diethyl succinate]	53.4 ± 30	44.4 ± 30	70.6 ± 24	47.1 ± 29	60.9 ± 22	57.7 ± 24						
COC(=O)CCC(=O)OC [dimethyl succinate]	46.2 ± 31	43.2 ± 29	63.2 ± 28	53.9 ± 29	49.1 ± 27	43.6 ± 22						
CCCSSCCC [dipropyl disulfide]		65.6 ± 31		79.9 ± 21		35.9 ± 26	65.5 ± 30	59.7 ± 31	40.1 ± 28			
O=C1CCCCCN1 [epsilon-Caprolactam]	31.2 ± 28	39.4 ± 35	30.6 ± 30	31.3 ± 33	46 ± 25	40.9 ± 26						
CCO [ethanol]		41.4 ± 31		19.5 ± 28		60.9 ± 23	34.1 ± 28	14.2 ± 18	49.6 ± 23			
CCOC(C)=O [ethyl acetate]		44.2 ± 30		40.3 ± 29		45.2 ± 22	40 ± 32	19.3 ± 24	45.7 ± 29			
CCCC(=O)OCC [ethyl butyrate]		65.6 ± 29		77.8 ± 20		61.1 ± 33	53.5 ± 30	49.6 ± 32	59.6 ± 26			
CCOC(=O)/C=C/c1ccccc1 [ethyl cinnamate]		43.8 ± 29		61.5 ± 29		54.8 ± 26	43.3 ± 27	55.2 ± 27	63.1 ± 24			
CCCCCC(=O)OCC [ethyl hexanoate]		69.4 ± 27		73.9 ± 20		78.6 ± 19	56.4 ± 29	53.3 ± 28	71.6 ± 16			
CCOC(=O)CC [ethyl propionate]		50.7 ± 31		75.7 ± 24		39.9 ± 31	44.5 ± 34	53.9 ± 32	31.3 ± 30			
CCOC(=O)CC(C)O (configuration not stated) [ethyl-3-hydroxybutyrate]		62 ± 31		58.1 ± 32		75.4 ± 18	37.4 ± 29	38.3 ± 32	42 ± 23			
CCCC(O)CC(=O)OCC (configuration not stated) [ethyl-3-hydroxyhexanoate]		54.2 ± 28		60.3 ± 24		47.3 ± 27	40.1 ± 31	25.1 ± 27	54.4 ± 23			

Structure (SMILES)	perceived odor familiarity rating [1, 4]	perceived odor familiarity rating [1, 5]	perceived odor intensity rating [2, 4]	perceived odor intensity rating [2, 5]	perceived odor pleasantness rating [3, 4]	perceived odor pleasantness rating [3, 5]	perceived odor familiarity rating [1, 6]	perceived odor intensity rating [2, 6]	perceived odor pleasantness rating [3, 6]	perceived odor familiarity rating [1, 7]	perceived odor intensity rating [2, 7]	perceived odor pleasantness rating [3, 7]
CCc1ccccc1 [ethylbenzene]		51.4 ± 30		75.5 ± 22		35.2 ± 25	37 ± 33	23 ± 24	50.4 ± 19			
C=CCc1ccc(O)c(OC)c1 [eugenol]		73.6 ± 26		74.6 ± 21		67.6 ± 23	59.6 ± 32	60.4 ± 26	61.8 ± 25			
CCCCCCC1CCC(=O)O1 (configuration not stated) [gamma-decalactone]		51.5 ± 32		54 ± 28		64.9 ± 27	46.4 ± 30	33.2 ± 28	61.4 ± 20			
CC1CCC(=O)O1 (configuration not stated) [gamma-valerolactone]		38.9 ± 31		26.9 ± 30		51.4 ± 25	29.3 ± 28	14.7 ± 20	51.3 ± 22			
CC(C)=CCC/C(C)=C/CO [geraniol]		51.8 ± 31		71.8 ± 24		59.2 ± 25	57 ± 30	42.3 ± 30	62.1 ± 27			
CC(=O)OC/C=C(\C)CCC=C(C)C [geranyl acetate]							36.4 ± 31	16.3 ± 19	54.4 ± 19	38.7 ± 32	20.4 ± 24	47.9 ± 25
OCC(O)CO [glycerol]	33.6 ± 28	31.8 ± 30	31.2 ± 33	26.8 ± 29	48.1 ± 31	42.7 ± 25						
CCCCCCCO [heptanol (replicate)]		51.9 ± 33		72.2 ± 24		48.5 ± 29	39.9 ± 29	29.7 ± 30	58 ± 23			
CCCCCCCO [heptanol]		50.3 ± 30		62.7 ± 27		52.7 ± 25	44.9 ± 31	30.3 ± 28	59.6 ± 23			
CCCCCCCOC(C)=O [heptyl acetate]	55.8 ± 34	42.6 ± 31	82.2 ± 18	37.1 ± 31	53.4 ± 32	61.6 ± 22						
CCCCCCO [hexanol]		58.7 ± 28		61.5 ± 29		58.2 ± 27	42.7 ± 27	26 ± 27	49.4 ± 26			
CCCCCCOC(C)=O [hexyl acetate]		58.2 ± 30		58 ± 30		63.1 ± 24	29.9 ± 26	12.7 ± 17	53.7 ± 23			
CCCCCCOC(=O)CCC [hexyl butyrate]		44.1 ± 30		45.6 ± 34		34.1 ± 25	35.8 ± 27	19.4 ± 21	43.9 ± 16			
CC(C)CCO [isoamyl alcohol]		50.8 ± 33		63.5 ± 32		51 ± 33	25.9 ± 21	23.4 ± 26	39.2 ± 25			
CC(=O)OCC(C)C [isobutyl acetate]		72.1 ± 24		75.9 ± 22		56 ± 28	39.2 ± 27	33.5 ± 30	50 ± 22			
CC=Cc1ccc(OC(C)=O)c(OC)c1 [isoeugenol acetate]	57.1 ± 31	58.8 ± 28	57.6 ± 30	46.1 ± 28	58.3 ± 26	66.8 ± 25						
CC(=O)OCCC(C)C [isopentyl acetate]		55.5 ± 32		58.3 ± 31		59.3 ± 25	51 ± 35	45.9 ± 30	65.2 ± 23			
CC(=O)OC(C)C [isopropyl acetate (replicate)]		46.2 ± 33		49.4 ± 34		41.3 ± 23	44.5 ± 32	22.7 ± 22	49.9 ± 25			
